From ChEMBL document CHEMBL5316334, “Structure-Based Design of Novel Alkynyl Thio-Benzoxazepinone Receptor-Interacting Protein Kinase-1 Inhibitors: Extending the Chemical Space from the Allosteric to ATP Binding Pockets” (J Med Chem, 2023) come the findings set out here.

Calls of active or inactive are those of the source. The rule behind the calls is not given here.

Experiment [1] addresses T1, Receptor-interacting serine/threonine-protein kinase 1 (Homo sapiens, UniProt Q13546).
T1 sequence (Q13546 whole entry): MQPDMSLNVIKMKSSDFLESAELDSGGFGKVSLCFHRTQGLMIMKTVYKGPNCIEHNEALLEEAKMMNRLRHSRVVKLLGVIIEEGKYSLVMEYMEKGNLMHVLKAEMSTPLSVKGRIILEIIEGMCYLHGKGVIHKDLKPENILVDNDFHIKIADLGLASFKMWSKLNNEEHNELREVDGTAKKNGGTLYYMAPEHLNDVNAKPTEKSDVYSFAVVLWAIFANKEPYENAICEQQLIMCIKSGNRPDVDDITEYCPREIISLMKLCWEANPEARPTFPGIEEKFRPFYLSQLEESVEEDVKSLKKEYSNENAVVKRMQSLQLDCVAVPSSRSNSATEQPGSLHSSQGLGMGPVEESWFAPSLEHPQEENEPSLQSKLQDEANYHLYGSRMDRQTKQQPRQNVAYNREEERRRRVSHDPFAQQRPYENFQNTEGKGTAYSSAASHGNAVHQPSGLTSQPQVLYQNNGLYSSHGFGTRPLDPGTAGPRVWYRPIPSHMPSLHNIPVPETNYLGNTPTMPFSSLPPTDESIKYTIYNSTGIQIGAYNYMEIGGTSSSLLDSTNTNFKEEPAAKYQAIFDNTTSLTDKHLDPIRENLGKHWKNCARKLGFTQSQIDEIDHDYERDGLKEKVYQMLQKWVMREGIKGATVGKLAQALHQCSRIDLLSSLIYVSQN
Description: Binding affinity to recombinant RIPK1 (unknown origin) assessed as dissociation constant by kinomescan assay.

Experiment [2] concerns HT-29. Description: Cytotoxicity against human HT-29 cells assessed as reduction in cell viability measured for 16 to 24 hrs by Cell-titer-glo assay. Type of experiment: functional. To be noted: time 16-24 hrs.
Experiment [3] has as its system HT-29. In words: Anti-necroptosis activity against human HT-29 cells assessed as inhibition of TSZ-induced necroptosis preincubated for 30 mins followed by compound addition and measured for 16 hrs by Cell-titer-glo assay. Type of experiment: functional, cell-based.
Experiment [4] relates to HT-29. Description: Cytotoxicity against human HT-29 cells assessed as reduction in cell viability at 100 uM measured for 16 to 24 hrs by Cell-titer-glo assay. Type of experiment: functional, cell-based. The conditions noted are these: time 16-24 hrs.

Usually Kd stands for a measure of binding affinity in units of concentration. By CC50 is commonly meant the concentration giving 50% cytotoxicity. What is called EC50 is the concentration that produces a half-maximal response. For `CN1C(=S)[C@@H](NC(=O)c2n[nH]c(Cc3ccccc3)n2)COc2ccc(C#CC3CC3)cc21`, the Kd in experiment [1] came out at 40 nM. The CC50 in the experiment with HT-29 [2] was more than 100000 nM. In addition, in the experiment on HT-29 [3], the EC50 amounted to 8.7 nM.

On to `COc1ccc(C#Cc2ccc3c(c2)N(C)C(=S)[C@@H](NC(=O)c2n[nH]c(Cc4ccccc4)n2)CO3)cc1`, for which the CC50 in the experiment with HT-29 [2] is more than 100000 nM. Besides, in the experiment with HT-29 [4], the result was inactive. Also, the concentration for a half-maximal effect (EC50) with HT-29 [3] came out at 299 nM.

Regarding `CN1C(=S)[C@@H](NC(=O)c2n[nH]c(Cc3ccccc3)n2)COc2ccc(C#Cc3cccc(F)c3)cc21`, the CC50 in the experiment on HT-29 [2] is more than 100000 nM. For the same compound, the outcome in the experiment on HT-29 [4] was inactive. The EC50 in the experiment on HT-29 [3] was 22.6 nM.

As for `CN1C(=S)[C@@H](NC(=O)c2n[nH]c(Cc3ccccc3)n2)COc2ccc(C#Cc3cccc(C(F)(F)F)c3)cc21`, the CC50 in the experiment with HT-29 [2] was more than 100000 nM. The result in the experiment on HT-29 [4] was inactive. In addition, the EC50 with HT-29 [3] came to 47.8 nM.

For `CN1C(=S)[C@@H](NC(=O)c2n[nH]c(Cc3ccccc3)n2)COc2ccc(C#Cc3cccc([N+](=O)[O-])c3)cc21`, the Kd in experiment [1] came out at 230 nM. Further, the CC50 with HT-29 [2] is more than 100000 nM. Further, in the experiment on HT-29 [4], the result was inactive. In addition, the EC50 in the experiment on HT-29 [3] was determined as 9.2 nM.

Turning to `COC(=O)c1ccc(C#Cc2ccc3c(c2)N(C)C(=S)[C@@H](NC(=O)c2n[nH]c(Cc4ccccc4)n2)CO3)cc1`, the Kd in experiment [1] turned out to be 83 nM. The CC50 in the experiment with HT-29 [2] is more than 100000 nM. For the same compound, the outcome with HT-29 [4] was inactive. The EC50 in the experiment on HT-29 [3] is 5.8 nM.

For the compound `COc1cccc(C#Cc2ccc3c(c2)N(C)C(=S)[C@@H](NC(=O)c2n[nH]c(Cc4ccccc4)n2)CO3)c1`, in the experiment on HT-29 [2], the CC50 is more than 100000 nM. Moreover, the result in the experiment with HT-29 [4] was inactive. Besides, the EC50 in the experiment on HT-29 [3] came out at 11.1 nM.

On to `CN1C(=S)[C@@H](NC(=O)c2n[nH]c(Cc3ccccc3)n2)COc2ccc(C#C[Si](C)(C)C)cc21`, for which the CC50 in the experiment with HT-29 [2] is more than 100000 nM. Moreover, the outcome with HT-29 [4] was inactive. Further, the EC50 in the experiment on HT-29 [3] was determined as 20.5 nM.

Consider `CN1C(=S)[C@@H](NC(=O)c2n[nH]c(Cc3ccccc3)n2)COc2ccc(C#Cc3ccccc3Cl)cc21`, for which, in the experiment on HT-29 [2], the CC50 is more than 100000 nM. Moreover, the result with HT-29 [4] was inactive. The EC50 in the experiment with HT-29 [3] was found to be 14 nM.

With `CN1C(=S)[C@@H](NC(=O)c2n[nH]c(Cc3ccccc3)n2)COc2ccc(C#Cc3ccc(Cl)cc3)cc21`, in the experiment on HT-29 [2], the CC50 was more than 100000 nM. Also, the outcome in the experiment on HT-29 [4] was inactive. The EC50 in the experiment with HT-29 [3] was found to be 31.3 nM.

Consider `CN1C(=S)[C@@H](NC(=O)c2n[nH]c(Cc3ccccc3)n2)COc2ccc(C#Cc3ccccc3)cc21`, for which the CC50 in the experiment with HT-29 [2] was more than 100000 nM. Further, in the experiment with HT-29 [4], the result was inactive. For the same compound, in the experiment on HT-29 [3], the EC50 worked out at 12.7 nM.

For the compound `CN1C(=S)[C@@H](NC(=O)c2n[nH]c(Cc3ccccc3)n2)COc2ccc(C#Cc3ccc(F)cc3)cc21`, the CC50 in the experiment on HT-29 [2] was more than 100000 nM. Further, in the experiment with HT-29 [4], the outcome was inactive. Moreover, in the experiment on HT-29 [3], the EC50 stood at 22.5 nM.

`COC(=O)c1ccccc1C#Cc1ccc2c(c1)N(C)C(=S)[C@@H](NC(=O)c1n[nH]c(Cc3ccccc3)n1)CO2`: the CC50 in the experiment with HT-29 [2] is more than 100000 nM. Also, the outcome with HT-29 [4] was inactive. In addition, in the experiment on HT-29 [3], the EC50 was determined as 32.9 nM.

On to `CN1C(=S)[C@@H](NC(=O)c2n[nH]c(Cc3ccccc3)n2)COc2ccc(C#Cc3cccc(OC(F)(F)F)c3)cc21`, for which, in the experiment with HT-29 [2], the CC50 was more than 100000 nM. The outcome in the experiment on HT-29 [4] was inactive. The EC50 with HT-29 [3] amounted to 27 nM.

Consider `CN1C(=S)[C@@H](NC(=O)c2n[nH]c(Cc3ccccc3)n2)COc2ccc(C#Cc3ccccc3OC(F)(F)F)cc21`, for which the CC50 with HT-29 [2] was more than 100000 nM. Also, the result in the experiment with HT-29 [4] was inactive. Moreover, in the experiment on HT-29 [3], the EC50 turned out to be 36.2 nM.

Turning to `CN1C(=S)[C@@H](NC(=O)c2n[nH]c(Cc3ccccc3)n2)COc2ccc(C#Cc3ccccc3C(F)(F)F)cc21`, the CC50 with HT-29 [2] was more than 100000 nM. Further, the result with HT-29 [4] was inactive. Moreover, in the experiment on HT-29 [3], the EC50 is 41.3 nM.

In the case of `CN1C(=S)[C@@H](NC(=O)c2n[nH]c(Cc3ccccc3)n2)COc2ccc(C#Cc3ccc([N+](=O)[O-])cc3)cc21`, the Kd in experiment [1] was 150 nM. Also, the 50% cytotoxic concentration (CC50) in the experiment with HT-29 [2] is more than 100000 nM. For the same compound, the outcome with HT-29 [4] was inactive. Besides, in the experiment on HT-29 [3], the EC50 was found to be 6.8 nM.

On to `CN1C(=S)[C@@H](NC(=O)c2n[nH]c(Cc3ccccc3)n2)COc2ccc(C#Cc3ccccc3C#N)cc21`, for which the Kd in experiment [1] was found to be 78 nM. The CC50 in the experiment with HT-29 [2] is more than 100000 nM. The result in the experiment with HT-29 [4] was inactive. Moreover, the EC50 with HT-29 [3] came to 7.7 nM.

As for `CN1C(=S)[C@@H](NC(=O)c2n[nH]c(Cc3ccccc3)n2)COc2ccc(C#Cc3ccc(OC(F)(F)F)cc3)cc21`, the CC50 with HT-29 [2] was more than 100000 nM. For the same compound, the outcome in the experiment on HT-29 [4] was inactive. For the same compound, the EC50 in the experiment on HT-29 [3] was found to be 10.4 nM.

As for `Cc1ccccc1C#Cc1ccc2c(c1)N(C)C(=S)[C@@H](NC(=O)c1n[nH]c(Cc3ccccc3)n1)CO2`, in the experiment on HT-29 [2], the CC50 is more than 100000 nM. In addition, the result with HT-29 [4] was inactive. In addition, in the experiment with HT-29 [3], the EC50 was determined as 23.3 nM.

With `CN1C(=S)[C@@H](NC(=O)c2n[nH]c(Cc3ccccc3)n2)COc2ccc(C#Cc3ccccc3F)cc21`, the CC50 in the experiment on HT-29 [2] was more than 100000 nM. The outcome in the experiment on HT-29 [4] was inactive. In addition, the EC50 in the experiment with HT-29 [3] worked out at 32.3 nM.

For the compound `CN1C(=S)[C@@H](NC(=O)c2n[nH]c(Cc3ccccc3)n2)COc2ccc(C#Cc3cccc(Cl)c3)cc21`, in the experiment on HT-29 [2], the CC50 is more than 100000 nM. In the experiment on HT-29 [4], the result was inactive. Moreover, the EC50 with HT-29 [3] was 23.9 nM.

As for `CN1C(=S)[C@@H](NC(=O)c2n[nH]c(Cc3ccccc3)n2)COc2ccc(C#Cc3ccc(C(F)(F)F)cc3)cc21`, the CC50 with HT-29 [2] was more than 100000 nM. Further, the result in the experiment with HT-29 [4] was inactive. Besides, the EC50 in the experiment with HT-29 [3] was determined as 25.5 nM.

In the case of `CN1C(=S)[C@@H](NC(=O)c2n[nH]c(Cc3ccccc3)n2)COc2ccc(C#Cc3ccccc3[N+](=O)[O-])cc21`, the CC50 in the experiment with HT-29 [2] is more than 100000 nM. In addition, in the experiment on HT-29 [4], the result was inactive. Also, the EC50 with HT-29 [3] came to 15.1 nM.

For `COc1ccccc1C#Cc1ccc2c(c1)N(C)C(=S)[C@@H](NC(=O)c1n[nH]c(Cc3ccccc3)n1)CO2`, the CC50 with HT-29 [2] is more than 100000 nM. In addition, the result in the experiment with HT-29 [4] was inactive. Further, the EC50 in the experiment with HT-29 [3] is 10.7 nM.

Take `COC(=O)c1cccc(C#Cc2ccc3c(c2)N(C)C(=S)[C@@H](NC(=O)c2n[nH]c(Cc4ccccc4)n2)CO3)c1`: in experiment [1], the Kd is 160 nM. Besides, the CC50 with HT-29 [2] was more than 100000 nM. Besides, the result in the experiment on HT-29 [4] was inactive. Further, the EC50 with HT-29 [3] came to 10.8 nM.

Consider `CN1C(=S)[C@@H](NC(=O)c2n[nH]c(Cc3ccccc3)n2)COc2ccc(C#CCc3ccccc3)cc21`, for which, in the experiment on HT-29 [2], the CC50 is more than 100000 nM. In addition, the result with HT-29 [4] was inactive. In the experiment with HT-29 [3], the EC50 was 14.3 nM.

Regarding `Cc1cccc(C#Cc2ccc3c(c2)N(C)C(=S)[C@@H](NC(=O)c2n[nH]c(Cc4ccccc4)n2)CO3)c1`, the CC50 in the experiment with HT-29 [2] was more than 100000 nM. Further, the outcome in the experiment with HT-29 [4] was inactive. The EC50 in the experiment on HT-29 [3] was 27.6 nM.

With `CN1C(=S)[C@@H](NC(=O)c2n[nH]c(Cc3ccccc3)n2)COc2ccc(C#Cc3ccc(C#N)cc3)cc21`, the Kd in experiment [1] is 92 nM. The CC50 in the experiment on HT-29 [2] is more than 100000 nM. Further, the result in the experiment on HT-29 [4] was inactive. In addition, the EC50 in the experiment with HT-29 [3] was determined as 6.3 nM.

For `CN1C(=S)[C@@H](NC(=O)c2n[nH]c(Cc3ccccc3)n2)COc2ccccc21`, the 50% cytotoxic concentration (CC50) with HT-29 [2] was more than 100000 nM.
